Experiments:
[1] = five-year study; cited from earlier work
[2] = tested on: people with lung diseases, especially COPD; assay: mortality from respiratory disease in people with lung diseases regularly self-administering tiotropium through the HANDIHALER inhalation device; assay type: in vivo; conditions: regular self-administration by inhalation via HANDIHALER; compared with a population with similar characteristics not treated with tiotropium
Source text: This is evidence by the number of people with lung diseases, especially COPD, who die from respiratory disease in a given prolonged period of time when regularly self-administering tiotropium through the HANDIHALER® inhalation device; the comparison being a population with similar characteristics not treated with tiotropium.

Compound	influence on mortality [1]	reduction of the mortality rate (number of people who die from respiratory disease in a given prolonged period of time) [2]
CC(C)[N+]1(C)[C@@H]2CC[C@H]1CC(OC(=O)C(CO)c1ccccc1)C2.[Br-] (some centres unmarked) [ipratropium bromide]	did not show any influence on mortality	
C[N+]1(C)C2C[C@H](OC(=O)C(O)(c3cccs3)c3cccs3)CC1[C@H]1OC21 (stereo partly drawn) [tiotropium, (1α,2β,4β,5α,7β)-7-[(hydroxydi-2-thienylacetyl)oxy]-9,9-dimethyl-3-oxa-9-azoniatricyclo[3.3.1.0^2,4]nonane bromide]		suitable in the reduction of the mortality rate
